≈ marks a conversion by molar mass, not a printed value.
Legend:
[1] = test system: Staphylococcus aureus (SAUR 9213); test: MIC by standard agar dilution method; format: cell-based; conditions: Mueller Hinton agar, incubated overnight at 35° C., read-out: MIC
How it was run: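 Serial 2-fold compound dilutions in Mueller Hinton agar, spot-inoculated with approximately 10^4 to 10^5 cells from a 1:20-diluted 0.5 McFarland suspension in TSB. Incubated overnight at 35 °C; MIC (μg/ml) is the lowest concentration preventing visible growth.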

Compound | melting point | MIC [1] [µg/mL]
C=CCNC(=O)[C@H]1CN(c2ccc(N3CCOCC3)c(F)c2)C(=O)O1 [Example 3, (5R)-(−)-3-[3-Fluoro-4-(4-morpholinyl)phenyl]-N-allyl-2-oxo-5-oxazolidinecarboxamide] | 167 to 169 °C | 8 (≈ 22.9 µM)
Cn1c(=O)sc2cc(N3C[C@H](C(=O)NCCO)OC3=O)ccc21 [Example 34, (5R)-(−)-N-(2-Hydroxyethyl)-3-(2,3-dihydro-3-methyl-2-oxo-6-benzothiazolyl)-2-oxo-5-oxazolidinecarboxamide] | 217 to 219 °C | 8 (≈ 23.7 µM)
CNC(=O)[C@H]1CN(c2ccc3c(c2)oc(=O)n3C(C)C)C(=O)O1 [Example 53, (5R)-(−)-N-Methyl-3-(2,3-dihydro-3-isopropyl-2-oxo-6-benzoxazolyl)-2-oxo-5-oxazolidinecarboxamide] | 216 to 218 °C | 2 (≈ 6.26 µM)
NC(=O)[C@H]1CN(c2ccc(N3CC[S+]([O-])CC3)c(F)c2)C(=O)O1 [Example 21, (5R)-(−)-3-[3-Fluoro-4-(thiomorpholin-4-yl)phenyl]-2-oxo-5-oxazolidinecarboxamide S-oxide] | 264 to 266 °C (dec.) | 8 (≈ 23.4 µM)
C[C@@H]1Cc2cc(N3C[C@H](C(N)=O)OC3=O)ccc2N1C=O [Example 49, (5R)-3-[(2R)-2,3-Dihydro-1-formyl-2-methyl-1H-indol-5-yl]-2-oxo-5-oxazolidinecarboxamide] | 228 to 230 °C | 8 (≈ 27.7 µM)
CCn1c(=O)oc2cc(N3C[C@H](C(=O)NC)OC3=O)ccc21 [Example 52, (5R)-(−)-N-Methyl-3-(2,3-dihydro-3-ethyl-2-oxo-6-benzoxazolyl)-2-oxo-5-oxazolidinecarboxamide] | 263 to 265 °C | 2 (≈ 6.55 µM)
CNC(=O)[C@H]1CN(c2cc(F)c(N3CCOCC3)c(F)c2)C(=O)O1 [Example 42, (5R)-(−)-N-Methyl-3-[3,5-difluoro-4-(4-morpholinyl)phenyl]-2-oxo-5-oxazolidinecarboxamide] | 179 to 181 °C | 4 (≈ 11.7 µM)
CCn1c(=O)oc2cc(N3C[C@H](C(N)=O)OC3=O)ccc21 [Example 39, (5R)-(−)-3-(2,3-Dihydro-3-ethyl-2-oxo-6-benzoxazolyl)-2-oxo-5-oxazolidinecarboxamide] | 234 to 236 °C | 1 (≈ 3.43 µM)
NC(=O)[C@H]1CN(c2ccc(N3CCS(=O)(=O)CC3)cc2)C(=O)O1 [Example 18, (5R)-(−)-3-[4-(Thiomorpholin-4-yl)phenyl]-2-oxo-5-oxazolidinecarboxamide S,S-dioxide] | 226 to 228 °C | 16 (≈ 47.1 µM)
Cn1c(=O)oc2cc(N3C[C@H](C(N)=O)OC3=O)ccc21 [Example 38, (5R)-(−)-3-(2,3-dihydro-3-methyl-2-oxo-6-benzoxazolyl)-2-oxo-5-oxazolidinecarboxamide] | > 260 °C | 1 (≈ 3.61 µM)
NC(=O)[C@H]1CN(c2ccc([C@H]3CC[S@+]([O-])CC3)c(F)c2)C(=O)O1 [Example 24, (5R)-3-[3-Fluoro-4-(trans-tetrahydro-1-oxido-2H-thiopyran-4-yl)phenyl]-2-oxo-5-oxazolidinecarboxamide] | 201 to 203 °C | 2 (≈ 5.88 µM)
NC(=O)[C@H]1CN(c2ccc(C3=CC[S+]([O-])CC3)c(F)c2)C(=O)O1 (stereo partly drawn) [Example 11, (5R)-3-[4-(3,6-Dihydro-2H-thiopyran-4-yl)-3-fluorophenyl]-2-oxo-5-oxazolidinecarboxamide S-oxide] | 182 to 184 °C (dec.) | 4 (≈ 11.8 µM)
CCCNC(=O)[C@H]1CN(c2ccc(N3CCOCC3)c(F)c2)C(=O)O1 [Example 4, (5R)-(−)-3-[3-Fluoro-4-(4-morpholinyl)phenyl]-N-propyl-2-oxo-5-oxazolidinecarboxamide] | 165 to 167 °C | 16 (≈ 45.5 µM)
NC(=O)[C@H]1CN(c2ccc([C@H]3CC[S@@+]([O-])CC3)c(F)c2)C(=O)O1 [Example 23, (5R)-3-[3-Fluoro-4-(cis-tetrahydro-1-oxido-2H-thiopyran-4-yl)phenyl]-2-oxo-5-oxazolidinecarboxamide] | 279 to 281 °C (dec.) | 4 (≈ 11.8 µM)
CNC(=O)[C@H]1CN(c2ccc(C3CCS(=O)(=O)CC3)c(F)c2)C(=O)O1 [Example 41, (5R)-(−)-N-Methyl-3-[4-(Tetrahydro-2H-thiopyran-4-yl)-3-fluorophenyl]-2-oxo-5-oxazolidinecarboxamide S,S-dioxide] | 180.5 to 182 °C | 2 (≈ 5.4 µM)
CCn1c(=O)sc2cc(N3C[C@H](C(N)=O)OC3=O)ccc21 [Example 30, (5R)-(−)-3-(2,3-Dihydro-3-ethyl-2-oxo-6-benzothiazolyl)-2-oxo-5-oxazolidinecarboxamide] | 211 to 212.5 °C | 1 (≈ 3.25 µM)
CNC(=O)[C@H]1CN(c2ccc(N3Cc4cccnc4C3)c(F)c2)C(=O)O1 [Example 55, (5R)-N-Methyl-3-[4-(5,7-dihydro-6H-pyrrolo[3,4-b]pyridin-6-yl)-3-fluorophenyl]-2-oxo-5-oxazolidinecarboxamide] | 275 °C (dec.) | 1 (≈ 2.81 µM)
CNC(=O)[C@H]1CN(c2cc(F)c(N3CC[S+]([O-])CC3)c(F)c2)C(=O)O1 [Example 43, (5R)-(−)-N-Methyl-3-[3,5-difluoro-4-(thiomorpholin-4-yl)phenyl]-2-oxo-5-oxazolidinecarboxamide S-oxide] | 237 to 241 °C | 4 (≈ 10.7 µM)
CC(C)n1c(=O)sc2cc(N3C[C@H](C(N)=O)OC3=O)ccc21 [Example 31, (5R)-(−)-3-(2,3-Dihydro-3-isopropyl-2-oxo-6-benzothiazolyl)-2-oxo-5-oxazolidinecarboxamide] | 183 to 184.5 °C | 1 (≈ 3.11 µM)

From patent publication US7645781B2, “N-aryl-2-oxazolidinone-5-carboxamides and their derivatives” (Pfizer Inc, priority 2002, dated 2010)
